Results as given in patent publication EP0545103A1, “Insecticidal, acaricidal and molluscicidal 1-(substituted) thioalkylpyrroles” (priority 1991, dated 1993).

Legend:
Assay type in all cases: in vivo
Parameters in all cases: key: 0: no effect; 10-25% kill; 26-35% kill; 36-45% kill; 46-55% kill; 56-65% kill; 66-75% kill; 76-85% kill; 86-99% kill; 9: 100% kill
[1] = tested on: Heliothis virescens, egg, tobacco budworm; experiment: Tobacco budworm egg test, dipped cotton leaf and eggs; settings: mortality rating after 3 days
Procedure, shortened: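 Scoring is by mortality counts after 3 days, graded on a rating scale. Tobacco budworm eggs (6-30 h old) on cheesecloth and a young cotton leaf were each dipped about 3 s in the test suspension. Suspensions were made from a 10,000 ppm stock in 35% acetone/water with further water dilutions.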

[2] = tested on: Spodoptera eridania, 3rd instar larvae, southern armyworm; experiment: Southern armyworm 7-day residual test; settings: R designates Residual: 7-day residual foliage, concentration not given; for ARMYWORM Day 3 R: rating at 3 days; for ARMYWORM Day 5 R: rating at 5 days
Procedure, shortened: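 Third-instar southern armyworm larvae were exposed to lima bean foliage that had been treated, then held 7 days under greenhouse lamps simulating bright sun for 14 h per day. Treatment solutions were diluted in water from a 10,000 ppm stock in 35% acetone. Results are scale ratings.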

[3] = tested on: Spodoptera eridania, 3rd instar larvae, southern armyworm; experiment: Southern armyworm systemic uptake (stem systemic) test; settings: cut stem in emulsion 3 days
[4] = tested on: Diabrotic undecimpunctata howardi, 3rd instar southern corn rootworm; experiment: Southern corn rootworm soil test; settings: mortality rating after 6 days
Procedure, shortened: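 Soil test with ten 3rd instar larvae per jar, mortality read after 6 days and missing larvae counted as dead; scores on a rating scale. Doses were 1.25 and 0.25 mg a.i. per jar, corresponding to roughly 50 and 10 kg/ha, loaded on talc from acetone and mixed into moist soil with millet seed as food.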

[5] = tested on: Empoasca abrupta, adult, western potato leafhopper; experiment: Western potato leafhopper contact test, dipped limabean leaf
Procedure, shortened: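 Sieva limabean leaf dipped 3 s in compound solution (diluted in water from 10,000 ppm stock in 35% acetone), dried, and infested with about 10 adult leafhoppers on moist filter paper. Mortality counted after 2 days and scored on a rating scale.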

[6] = tested on: Empoasca abrupta, adult, western potato leafhopper; experiment: Western potato leafhopper systemic uptake test; settings: 100 ppm
Procedure, shortened: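 Leafhopper mortality, rated on a scale, scored 2 days after about 10 adults were confined with a leaf in a moist dish. The leaf came from a cut lima bean stem that had taken up the compound emulsion (100 ppm and 10-fold dilutions) over 3 days at 27 °C.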

[7] = 100 ppm, contact, rating scale 0-9
[8] = systemic uptake, rating scale 0-9
[9] = cut stem in emulsion 3 days, mortality rating after 2 days
[10] = 10 ppm, contact, rating scale 0-9
[11] = 10 ppm, mortality rating after 2 days
[12] = 100 ppm, mortality rating after 2 days

Row | Compound | TOBACCO BUDWORM Egg ([1]; 1000 ppm) | ARMYWORM Day 3 R [2] | ARMYWORM Day 5 R [2] | ARMYWORM Stem Sys [3] | SOUTHERN CORN ROOTWORM ([4]; 50 (ppm as headed)) | LEAFHOPPER Contact [5, 7] | LEAFHOPPER Systemic [6, 8] | TOBACCO BUDWORM Egg ([1]; 100 ppm) | TOBACCO BUDWORM Egg ([1]; 300 ppm) | SOUTHERN CORN ROOTWORM ([4]; 1 (ppm as headed)) | SOUTHERN CORN ROOTWORM ([4]; 10 (ppm as headed)) | LEAFHOPPER Systemic [6, 9] | LEAFHOPPER Contact [5, 10] | LEAFHOPPER Contact [5, 11] | LEAFHOPPER Contact [5, 12]
1 | CCOC(=S)SCn1c(Cl)c(C#N)c(Cl)c1-c1ccc(Cl)c(Cl)c1 [Example 37] | 0 | 9 (100% kill) | 9 (100% kill) | 0 | 0 | 6 (66-75% kill) | 0 |  |  |  |  |  |  |  | 
2 | N#Cc1c(Br)c(C(F)(F)F)n(CSC2=NCCN2)c1-c1ccc(Cl)cc1 [Example 7] | 9 (100% kill) | 9 (100% kill) | 9 (100% kill) | 0 | 9 (100% kill) |  |  | 0 | 8 (86-99% kill) | 0 | 0 | 0 |  |  | 
3 | CN=C(NC)SCn1c(Cl)c(Cl)c(C#N)c1-c1ccc(Cl)c(Cl)c1 [Example 15] | 0 | 9 (100% kill) | 9 (100% kill) | 0 | 0 | 6 (66-75% kill) | 0 | 0 |  |  |  |  | 0 |  | 
4 | CN(C)C(=S)SCn1c(-c2ccc(Cl)cc2)c(C#N)c(Cl)c1C(F)(F)F [Example 21] | 0 | 9 (100% kill) | 9 (100% kill) | 0 | 9 (100% kill) |  |  | 0 |  | 0 | 0 | 0 |  |  | 
5 | CSCn1c(-c2ccc(Cl)cc2)c(C#N)c(Br)c1C(F)(F)F [Example 25] | 0 | 9 (100% kill) | 9 (100% kill) | 0 | 0 |  |  |  |  |  | 0 | 0 |  | 0 | 9 (100% kill)
6 | CC(C)OC(=S)SCn1c(-c2ccc(Cl)cc2)c(C#N)c(Br)c1C(F)(F)F [Example 30] | 0 | 9 (100% kill) | 9 (100% kill) | 0 | 9 (100% kill) |  | 0 | 0 |  |  |  |  |  |  | 
7 | CC1(C)CN=C(SCn2c(-c3ccc(Cl)cc3)c(C#N)c(Br)c2C(F)(F)F)NC1 [Example 10] | 0 | 9 (100% kill) | 9 (100% kill) | 0 | 0 | 7 (76-85% kill) | 6 (66-75% kill) | 0 |  |  |  |  | 0 |  | 
8 | CN=C(NC)SCn1c(Br)c(Br)c(C#N)c1Br [Example 14] | 0 | 0 | 5 (56-65% kill) | 0 | 0 | 0 | 7 (76-85% kill) |  |  |  |  |  |  |  | 
9 | CN(C)C(=S)SCn1c(-c2ccc(Cl)cc2)c(C#N)c(Br)c1C(F)(F)F [Example 24] | 0 | 9 (100% kill) | 9 (100% kill) | 0 | 9 (100% kill) |  |  |  |  | 0 | 0 | 0 |  | 0 | 9 (100% kill)
10 | CCOC(=S)SCn1c(-c2ccc(Cl)c(Cl)c2)c(Br)c(C(F)(F)F)c1C(F)(F)F [Example 35] | 0 | 9 (100% kill) | 9 (100% kill) | 0 | 0 | 9 (100% kill) | 0 |  |  |  |  |  | 9 (100% kill) |  | 
11 | N#Cc1c(Br)c(Br)n(CSc2ccccc2)c1-c1ccc(C(F)(F)F)cc1 [Example 45, 4,5-dibromo-1-[(phenylthio)methyl]-2-(alpha, alpha,alpha-trifluoro-p-tolyl)pyrrole-3-carbonitrile] | 0 | 0 | 0 | 0 | 0 |  |  |  |  |  |  |  |  |  | 
12 | CCOC(=S)SCn1c(Cl)c(Cl)c(C#N)c1-c1ccc(Cl)c(Cl)c1 [Example 28] | 0 | 9 (100% kill) | 9 (100% kill) | 0 | 0 | 9 (100% kill) | 0 | 0 |  |  |  |  | 0 |  | 
13 | FC(F)(F)c1c(Br)c(-c2ccc(Cl)c(Cl)c2)n(CSC2=NCCCN2)c1C(F)(F)F [Example 17] | 0 | 9 (100% kill) | 9 (100% kill) | 0 | 7 (76-85% kill) | 5 (56-65% kill) | 0 |  |  |  |  |  |  |  | 
14 | N=C(N)SCn1c(-c2ccc(Cl)c(Cl)c2)c(Br)c(C(F)(F)F)c1C(F)(F)F [Example 18] | 0 | 9 (100% kill) | 9 (100% kill) | 0 | 0 |  | 0 |  |  |  |  |  |  |  | 
15 | CN=C(NC)SCn1c(-c2ccc(Cl)cc2)c(C#N)c(Cl)c1C(F)(F)F [Example 2] | 0 | 9 (100% kill) | 9 (100% kill) | 0 | 8 (86-99% kill) |  |  | 0 |  | 0 | 0 | 0 |  |  | 
